Like-named read-outs stand apart in the source and are kept apart here. Peptide text beside a SMILES is read from it.
Experiments:
ACE N-domain = ACE N-domain selective inhibitor; cited from earlier work
Text: Somatic ACE is composed of two similar catalytic domains (N- and C-domains).

ACE = conditions: cited from earlier work
Text: (§1) Food peptides with anti-ACE activities have been identified from plants and animals. For example, oligopeptides FDGIP and AIDPVRA are ACE inhibitor derived from Caulerpa lentillifera. […] Peptides from auto-digested reishi (Ganoderma lingzhi) extract show potent inhibition against ACE and hypotensive activities in SHRs. Lacto-tr ... || CSE was a protein-rich extract and the protein content of CSE was 10.86%. Moreover, the well-known ACE inhibitors are amino acid or dipeptide drugs. Therefore, we proposed that there were bioactive peptides responsible for the anti-hypertensive activities of CSE. Proteomics and bioinformatics analyses were further applied to identify the anti-hypertensive bioactive peptides in CSE. Peptides with anti-hypertensive potentials have been determined from corn. For example, dipeptide Ala-Tyr (AY) has been identified from corn gluten meal, a major byproduct of corn wet milling. AY affects the ACE act ...

[1] = system: spontaneously hypertensive rats (SHRs); assay: Tail-cuff systolic blood pressure in spontaneously hypertensive rats; format: in vivo, rat (male SHR); conditions: SHR; for Decrease of SBP, intraperitoneal: 1 h after injection
Procedure: Male SHRs (200–250 g, 10 week-old) were purchased from National Laboratory Animal Center (Taipei, Taiwan). Rats were maintained under a 12 h day/12 h night cycle and had free access to water and food. Rat experiments were conducted under ethics approval from China Medical University Animal Care and Use Committee (Permit No. 104-75-N). SHRs with tail SBP ≥ 180 mmHg were randomly divided into five groups with six rats per group. Rats were given intraperitoneally or orally with 400 μL of distilled water (blank), captopril (Catalog No. C4042), or various dosages of CSE or peptide (dissolved in water). SBP was measured by a tail-cuff apparatus (Non-Invasive Blood Pressure System, Panlab, Barcelona, Spain). Rats were placed in a warm holder kept at 37 ± 1 °C for 10 min before the measurement. Changes in SBP were calculated by subtracting SBP at indicated time point from SBP at 0 h.

[2] = system: healthy human subjects and animals; conditions: exogenously administered angiotensin I, no reference given; cited from earlier work
Text: CSE was a protein-rich extract and the protein content of CSE was 10.86%. Moreover, the well-known ACE inhibitors are amino acid or dipeptide drugs. Therefore, we proposed that there were bioactive peptides responsible for the anti-hypertensive activities of CSE. Proteomics and bioinformatics analyses were further applied to identify the anti-hypertensive bioactive peptides in CSE. Peptides with anti-hypertensive potentials have been determined from corn. For example, dipeptide Ala-Tyr (AY) has been identified from corn gluten meal, a major byproduct of corn wet milling. AY affects the ACE act ...

SHRs [3] = assay: Tail diastolic blood pressure in spontaneously hypertensive rats; format: in vivo, rat (male SHR); conditions: SHR, oral, various dosages of CSBp5, 0 and 1 h; n = 6
Procedure: Male SHRs (200–250 g, 10 week-old) were purchased from National Laboratory Animal Center (Taipei, Taiwan). Rats were maintained under a 12 h day/12 h night cycle and had free access to water and food. Rat experiments were conducted under ethics approval from China Medical University Animal Care and Use Committee (Permit No. 104-75-N).
SHRs with tail SBP ≥ 180 mmHg were randomly divided into five groups with six rats per group. Rats were given intraperitoneally or orally with 400 μL of distilled water (blank), captopril (Catalog No. C4042), or various dosages of CSE or peptide (dissolved in water). SBP was measured by a tail-cuff apparatus (Non-Invasive Blood Pressure System, Panlab, Barcelona, Spain). Rats were placed in a warm holder kept at 37 ± 1 °C for 10 min before the measurement. Changes in SBP were calculated by subtracting SBP at indicated time point from SBP at 0 h.
Antihypertensive Effects of Corn Silk Extract and
Its Novel Bioactive Constituent in Spontaneously
Hypertensive Rats: The Involvement of
Angiotensin-Converting Enzyme Inhibition
Chia-Cheng Li 1, Yu-Chen Lee 2,3, Hsin-Yi Lo 1, Yu-Wen Huang 4, Chien-Yun Hsiang 5,* and […]
μmol/kg captopril or various dosages of CSBp5. Tail diastolic blood pressure was measured
at 0 and 1 h. Data are expressed as diastolic blood pressure (mmHg) (top panel) or changes in […]

ACE (serum) [4] = molecular target: T1, ACE (serum) (Mus musculus, UniProt P09470); assay: ACE activity assay, Z-FHL substrate; format: biochemical, mouse (BALB/c serum); conditions: various concentrations
T1 construct: Mouse sera collected from normal BALB/c mice were used as the source of soluble somatic ACE; from tissue; host or cells: serum of normal BALB/c mice
T1 sequence (P09470 35-1237 limits assumed): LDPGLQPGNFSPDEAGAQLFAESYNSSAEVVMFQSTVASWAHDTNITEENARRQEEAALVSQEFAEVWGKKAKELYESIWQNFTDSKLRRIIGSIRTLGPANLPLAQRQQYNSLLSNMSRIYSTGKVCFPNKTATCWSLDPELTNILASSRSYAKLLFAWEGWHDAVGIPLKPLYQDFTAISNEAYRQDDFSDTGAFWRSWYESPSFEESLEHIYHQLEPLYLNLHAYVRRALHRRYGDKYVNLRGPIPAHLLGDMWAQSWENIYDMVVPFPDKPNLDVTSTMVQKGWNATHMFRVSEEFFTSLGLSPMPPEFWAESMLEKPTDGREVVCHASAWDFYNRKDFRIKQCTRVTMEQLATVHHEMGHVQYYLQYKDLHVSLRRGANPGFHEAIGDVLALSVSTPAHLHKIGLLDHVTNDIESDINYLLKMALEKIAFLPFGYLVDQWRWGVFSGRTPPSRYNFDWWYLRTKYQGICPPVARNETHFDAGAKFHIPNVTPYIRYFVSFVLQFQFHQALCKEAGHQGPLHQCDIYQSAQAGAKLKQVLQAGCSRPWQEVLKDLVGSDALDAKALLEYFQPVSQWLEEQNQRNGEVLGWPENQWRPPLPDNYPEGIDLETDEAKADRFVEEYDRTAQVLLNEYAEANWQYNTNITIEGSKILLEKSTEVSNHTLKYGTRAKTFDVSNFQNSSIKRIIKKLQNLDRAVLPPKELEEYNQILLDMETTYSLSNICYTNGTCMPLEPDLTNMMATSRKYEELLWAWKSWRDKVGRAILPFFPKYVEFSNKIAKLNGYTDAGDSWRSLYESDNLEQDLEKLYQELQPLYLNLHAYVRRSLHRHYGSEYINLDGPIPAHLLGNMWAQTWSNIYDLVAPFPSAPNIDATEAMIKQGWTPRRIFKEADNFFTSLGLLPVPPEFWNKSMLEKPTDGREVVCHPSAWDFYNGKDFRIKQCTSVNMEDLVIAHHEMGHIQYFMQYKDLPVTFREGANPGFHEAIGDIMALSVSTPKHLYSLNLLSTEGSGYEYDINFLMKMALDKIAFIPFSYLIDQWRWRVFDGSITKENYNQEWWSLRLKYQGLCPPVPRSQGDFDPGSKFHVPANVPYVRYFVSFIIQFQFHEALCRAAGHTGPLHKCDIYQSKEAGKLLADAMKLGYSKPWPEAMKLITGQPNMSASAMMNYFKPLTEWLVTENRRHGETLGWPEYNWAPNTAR
Procedure: (§2) Various amounts of CSBp5 were mixed with mouse sera in the presence of H-HL or Z-FHL substrate, and the ACE activity was determined by measuring the fluorescence-labeled hydrolyzed substrates.
(§3) ACE activity assay was performed as described previously with a slight modification. Mouse sera collected from normal BALB/c mice were used as the source of soluble somatic ACE. ACE activity in mouse serum was determined as described previously. […] To correct the intrinsic fluorescence of mouse serum, blank was performed according to the aforementioned procedures without inhibitors.

ACE (serum) [5] = molecular target: T1, ACE (serum); assay: ACE activity assay, H-HL substrate; format: biochemical, mouse (BALB/c serum)
Procedure: as §2, §3

endothelial function = conditions: in vitro; cited from earlier work
Text: (§4) Food peptides with anti-ACE activities have been identified from plants and animals. For example, oligopeptides FDGIP and AIDPVRA are ACE inhibitor derived from Caulerpa lentillifera. […] Peptides from auto-digested reishi (Ganoderma lingzhi) extract show potent inhibition against ACE and hypotensive activities in SHRs. Lacto-tr ...

[6] = system: subjects with blood pressure ranging from normal to mild hypertension; conditions: intake of tablets containing VPP and IPP; cited from earlier work
Text: as §4

SHRs [7] = conditions: SHR, cited from earlier work
Text: as §1

[8] = intraperitoneal, 10 μmol/kg, tail-cuff, mean ± standard error, n = 6

CC(=O)N[C@@H](CC(=O)O)C(=O)N[C@@H](Cc1ccccc1)P(=O)(O)C[C@@H](C)C(=O)N[C@@H](C)C(N)=O [RXP407]
Effect on blood pressure (in words) (ACE N-domain): no effect on blood pressure

FDGIP [oligopeptide derived from Caulerpa lentillifera]
ACE inhibition (in words) (ACE; from Caulerpa lentillifera): ACE inhibitor

C[C@H](CS)C(=O)N1CCC[C@H]1C(=O)O [captopril]
Decrease of SBP, intraperitoneal [1, 8]: 52.83±19.06 mmHg
Decrease of SBP at 2 h (time course) ([1]; oral, 10 μmol/kg): approximately 60 mmHg
SBP level lower than that of the blank group ([1]; oral, 10 mg/kg, SBP at 0 and 1 h, tail-cuff, mean ± standard error, n = 6): 47.6 ± 4.34 mmHg
Angiotensin I-induced elevation of blood pressure (in words) [2]: attenuated or abolished

CC(C)C[C@H](NC(=O)[C@H](CC(N)=O)NC(=O)[C@H](CC(=O)O)NC(=O)[C@H](Cc1ccccc1)NC(=O)[C@H](CCCCN)NC(=O)[C@@H](N)CO)C(=O)N[C@@H](Cc1ccc(O)cc1)C(=O)NCC(=O)N[C@@H](CS)C(=O)N[C@@H](CCCNC(=N)N)C(=O)O [CSBp5] (H-SKFDNLYGCR-OH; N-terminus and C-terminus assumed)
Decrease of SBP, intraperitoneal [1, 8]: 28.33 ± 12.5 mmHg
Decrease of SBP, intraperitoneal (in words) ([1]; intraperitoneal, various dosages, 1 h): decreased SBP levels in a dose-dependent manner
Decrease of SBP, oral ([1]; oral, 10 μmol/kg, 1 h, tail-cuff, mean ± standard error, n = 6): 36.78 ± 13.25 mmHg
Decrease of SBP at 2 h (time course) ([1]; oral, 10 μmol/kg): ~30 mmHg
Duration of SBP decrease (in words) ([1]; oral, 10 μmol/kg, measured at 0, 1, 2, 4 and 6 h): persistent during a 6-h measurement
Decrease of SBP, oral (in words) ([1]; oral, various dosages, 1 h): decreased the SBP levels in a dose-dependent manner
Changes in diastolic blood pressure (in words) (SHRs [3]): consistent with the changes in SBP
Inhibition of ACE activity, Z-FHL (in words) (ACE (serum) [4]): inhibited the ACE activity and the inhibition displayed a dose-dependent manner
Domain preference of ACE inhibition (in words) (ACE (serum) [5]; H-HL versus Z-FHL hydrolysis): a more effective inhibition on the C-domain of ACE
Inhibition of ACE activity, H-HL (in words) (ACE (serum) [5]; mouse serum ACE, H-HL, various concentrations): inhibited the ACE activity and the inhibition displayed a dose-dependent manner

Met-Ile/Leu-Pro-Pro [tetrapeptide from hydrolyzed zein]
IC50, ACE in vitro (ACE): 70.32 µg/mL
IC50 (ACE; read-out: IC50, ACE in vitro): 155 µM

Ile-Pro-Pro [IPP, lacto-tripeptide from sour milk]
Endothelial function (in words) (endothelial function): protect the endothelial function in vitro
Improvement in hypertension and side effects (in words) [6]: mild improvement in hypertension without side effects
Anti-hypertensive effect in SHRs (in words) (SHRs [7]): exhibit anti-hypertensive effects in SHRs
ACE inhibition (in words) (ACE; sour milk peptides): inhibit the ACE activity

Val-Pro-Pro [VPP, lacto-tripeptide from sour milk]
Endothelial function (in words) (endothelial function): protect the endothelial function in vitro
Improvement in hypertension and side effects (in words) [6]: mild improvement in hypertension without side effects
Anti-hypertensive effect in SHRs (in words) (SHRs [7]): exhibit anti-hypertensive effects in SHRs
ACE inhibition (in words) (ACE; sour milk peptides): inhibit the ACE activity

Ala-Tyr [AY]
Maximal reduction of SBP (SHRs [7]; oral, 50 mg/kg, 2 h): 9.5 mmHg
IC50 (ACE; read-out: IC50, ACE): 14.2 µM

AIDPVRA [oligopeptide derived from Caulerpa lentillifera]
ACE inhibition (in words) (ACE; from Caulerpa lentillifera): ACE inhibitor

— publication PMC6572293, “Antihypertensive Effects of Corn Silk Extract and Its Novel Bioactive Constituent in Spontaneously Hypertensive Rats: The Involvement of Angiotensin-Converting Enzyme Inhibition” (Molecules, 2019)
